The structures appear in SMILES notation. Bounds are passed on as bounds.

For the first experiment, the target named is Parkin (Homo sapiens, UniProt O60260). Briefly: Parkin pUB Auto-ubiquitinylation Assay (TR-FRET). Format: biochemical.
Parkin, sequence (O60260 whole entry, other chains not shown): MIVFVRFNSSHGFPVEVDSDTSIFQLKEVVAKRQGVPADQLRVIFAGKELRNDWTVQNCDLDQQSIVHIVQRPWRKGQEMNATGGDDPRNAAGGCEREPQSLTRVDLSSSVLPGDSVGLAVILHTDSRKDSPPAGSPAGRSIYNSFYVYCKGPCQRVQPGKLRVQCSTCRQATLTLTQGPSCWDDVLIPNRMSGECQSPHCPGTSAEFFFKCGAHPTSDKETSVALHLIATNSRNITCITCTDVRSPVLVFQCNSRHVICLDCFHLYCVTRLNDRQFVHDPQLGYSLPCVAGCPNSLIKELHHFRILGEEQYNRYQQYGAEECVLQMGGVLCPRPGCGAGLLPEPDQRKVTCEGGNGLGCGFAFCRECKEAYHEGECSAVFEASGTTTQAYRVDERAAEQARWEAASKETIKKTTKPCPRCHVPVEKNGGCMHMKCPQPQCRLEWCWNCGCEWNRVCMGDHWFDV
Conditions: not given
An excerpt: A Parkin pUB Auto-ubiquitinylation Assay is used to evaluate a compound's potency to activate Parkin's ability to Auto-ubiquitinylate itself.
The principle of this assay is that the E3 Ligase Parkin catalyzes the transfer of Ubiquitin to target proteins, but also has the ability to auto-ubiquitinylate itself. The phospho-Ubiquition (pUb) added to the assay alters the Parkin to a state where small molecule activators can enable the Parkin to auto-ubiquitinylate though the E1-E2 cascade reaction. The use of a Eu cryptate Ubiquition and anti 6His-d2 that binds to the His tagged Parkin will give a signal when the Eu cryptate Ubiquition is auto-ubiquitinylate onto the Parkin which can be monitored by TR-FRET.
Similar to the Activity-based probe assay in Example 2, screening for activating compounds can be distinguished from the controls as follows: • 100% activation signal=pUb activated Parkin+40 nM control activator in DMSO. • 0% activation signal=pUb activated Parkin+DMSO only. • Parkin activators can be identified by an increase of the 0% activation signal TR-FRET signal. Materials: • Assay Plate: White 384 well plate (Corning 3572) • Enzyme 1: E1 (Ubiquitin-activating enzyme/UBE1 Boston Biochem E-305) • Enzyme 2: E2 (UBcH7/Ube2L3 Boston Biochem E2-640) • Enzyme 3: Parkin-His tagged 203 μM (10.5 mg/ml) • pUb: Phospho-Ubiquitin (S65) (Boston Biochem U-102) • Eu Cryptate Reagent: Ubiquitin Eu (CisBio 61UBIKLA) • DMSO: DMSO (Sigma-34869-2.5L) • Reaction Buffer: 50 mM HEPES, 50 mM NaCl, 1 mM MgCl2, 0.005% Tween 20, 0.1% PF-127 (Fisher Scientific 50-310-494), pH 8.5 • Detection Buffer: 50 mM HEPES, 50 mM NaCl, 800 mM KF, 5 mM EDTA, 0.005% Tween 20, 0.1% PF-127, pH 8.5 • Detection Reagent Z: 13.4 nM Anti-6His-d2 in detection buffer • d2 Reagent: Anti-6His-d2 (CisBio 61HISDLA)
Enzyme Reaction (15 min pre-incubation with Parkin, pUb and activator only) • Parkin: 196 nM • pUb: 196 nM • DMSO: 1% DMSO • E1: 5 nM • E2: 50 nM • Ubiquitin Eu: 8.8 nM • Reaction time: 120 minutes • Temperature: 22° C. • Total volume: 10 μl reaction
Take 10 μl of Enzyme Reaction above and add 10 μl detection Reagent Z under the following conditions:
Assay Procedure: • 1) Load assay plate wells with 4.9 μl 400.0 nM Parkin, 400 nM pUb in reaction buffer by use of Eppendorf 12-channel pipette. • 2) Deliver 0.1 μl 100× activator candidates in DMSO by use of Echo 555 compound dispenser. Highest 100× concentration=100 μm and then twofold dilutions. Add each compound and control in duplicate wells. • 3) Spin 1000 rpm, 2 minutes, at room temp. • 4) Incubate plate for 15 minutes at room temp. • 5) Add 5 μl 10 nM E1, 100 nM E2, 17.6 nM Ubiquitin Eu and 2 mM ATP in Reaction Buffer by use of Eppendorf 12-channel pipette. • 6) Spin 1000 rpm, 2 minutes, at room temp. • 7) Incubate plate for 120 minutes at room temp. • 8) Add 10 μl 13.4 nM anti his d2 in detection buffer by use of Eppendorf 12-channel pipette. • 9) Spin 1000 rpm, 2 minutes, at room temp. • 10) Incubate plate for 120 minutes at room temp. • 11) Read plates on Perkin Elmer Envision instrument with the following parameters: • LANCE dual laser protocol loaded into the Envision® software • Top Mirror: LANCE/DELFIA Duel/Bias (Bar code 446) • Emission Filter: APC 665 EM (Bar code 205) • 2nd Emission Filter: Europium 615 EM (Bar code 203) • Read 655 nm (channel 1) and 615 nm (channel 2) wavelengths on Envision®
Data Analysis: The Data can be read in CSV files. There are two tables in those CSV files, which are the values of 655 nm (channel 1) and 615 nm (channel 2) wavelengths respectively. The data is converted to an HTRF Ratio=(Channel 1/Channel 2)*10,000
The average of all the 0 uM controls (DMSO only)=BKGD (Background—0% activation). Subtract BKGD from each HTRF Ratio value=HTRF-BKGD. The average of all the […] control activator in DMSO controls=Max (100% activation). The following equation is then used to calculate % Activation for each well/candidate as follows: % Activation=(HTRF-BKGD/Max)*100. […]
Background: Time-resolved FRET reads energy transfer from a long-lived donor to a nearby acceptor.
Regarding `O=C(/C=C/c1ccccc1)Nc1nc(NC(=O)c2ccccc2)nn1-c1ccccc1` [Compound C, N-(5-cinnamamido-1-phenyl-1H-1,2,4-triazol-3-yl)benzamide], the “Parkin activity in an auto-ubiquitination assay” value was “increases”.

The same experiment, now with this note: Parkin activation, pUb activated Parkin; read-out: Auto-ubiq EC50 (μM) [Example 3].
For the compound `Cc1ccccc1C(=O)Nc1nc(-c2ccccn2)nn1-c1ccccc1` [Compound Q2], the EC50 (as a rule, the concentration needed to bring the measured effect to its halfway point) was > 40 µM.

As for `O=C(Nc1nc(NC(=O)c2cc3ccccc3s2)n(-c2ccccc2)n1)c1ccccc1` [Compound A2], the EC50 was > 40 µM.

On to `Cc1ccccc1C(=O)Nc1nc(NC(=O)/C=C/c2ccccc2)n(-c2ccccc2)n1` [Compound C2], for which the EC50 is > 40 µM.

As to `CN(C(=O)c1ccccc1)c1nc(N(C)C(=O)c2ccccc2)n(-c2ccccc2)n1` [J], the concentration giving a half-maximal response (EC50) was > 40 µM.

On to `Cc1ccccc1C(=O)Nc1nc(NC(=O)c2ccccc2C)n(-c2ccccn2)n1` [Compound X2], for which the half-maximal effective concentration (EC50) is > 40 µM.

With `O=C(Nc1nc(Nc2ncnc3ccccc23)nn1-c1ccccc1)c1ccccc1` [I], the EC50 was > 40 µM.

As to `O=C(Nc1nc(Nc2ccnc3ccccc23)n(-c2ccccc2)n1)c1ccccc1` [Compound I1], the EC50 was > 40 µM.

Take `O=C(Nc1nc(Nc2ncnc3ccccc23)n(-c2ccccc2)n1)c1ccccc1` [Compound L, N-[1-phenyl-5-(quinazolin-4-ylamino)-1,2,4-triazol-3-yl]benzamide]: the EC50 was > 40 µM.

For `Cc1ccccc1C(=O)Nc1nc(-c2ccncc2)nn1-c1ccccc1` [Compound S2], the EC50 was > 40 µM.

Take `Nc1nc(Nc2nc(NC(=O)c3ccccc3)nn2-c2ccccc2)c2ccccc2n1` [Compound J1]: the EC50 is > 40 µM.

Consider `O=C(Nc1nc(NC(=O)c2ccccc2)n(-c2ccc3ncccc3c2)n1)c1ccccc1` [Compound J2], for which the EC50 is > 40 µM.

As for `O=C(/C=C/c1ccccc1)Nc1nc(NC(=O)c2ccccc2)nn1-c1ccccc1` [Compound C, N-(5-cinnamamido-1-phenyl-1H-1,2,4-triazol-3-yl)benzamide], the EC50 is > 40 µM.

For `O=C(Nc1nc(NC(=O)c2ccccc2)n(C2CCOCC2)n1)c1ccccc1` [Compound I2], the EC50 is > 40 µM.
